Activity calls are given as the source filed them. The rule behind the calls is not given here.
What was measured:
[1] = target: T1, von Hippel-Lindau disease tumor suppressor/Androgen receptor (Homo sapiens, UniProt P10275+P40337); assay: Protac activity against VHL/AR in AR-positive human LNCAP cells assessed as induction of AR degradation at 1 uM incubated for 6 hrs by Western blot analysis relative to control; assay type: cell-based
Target sequence in this assay (P10275 whole entry, looked up): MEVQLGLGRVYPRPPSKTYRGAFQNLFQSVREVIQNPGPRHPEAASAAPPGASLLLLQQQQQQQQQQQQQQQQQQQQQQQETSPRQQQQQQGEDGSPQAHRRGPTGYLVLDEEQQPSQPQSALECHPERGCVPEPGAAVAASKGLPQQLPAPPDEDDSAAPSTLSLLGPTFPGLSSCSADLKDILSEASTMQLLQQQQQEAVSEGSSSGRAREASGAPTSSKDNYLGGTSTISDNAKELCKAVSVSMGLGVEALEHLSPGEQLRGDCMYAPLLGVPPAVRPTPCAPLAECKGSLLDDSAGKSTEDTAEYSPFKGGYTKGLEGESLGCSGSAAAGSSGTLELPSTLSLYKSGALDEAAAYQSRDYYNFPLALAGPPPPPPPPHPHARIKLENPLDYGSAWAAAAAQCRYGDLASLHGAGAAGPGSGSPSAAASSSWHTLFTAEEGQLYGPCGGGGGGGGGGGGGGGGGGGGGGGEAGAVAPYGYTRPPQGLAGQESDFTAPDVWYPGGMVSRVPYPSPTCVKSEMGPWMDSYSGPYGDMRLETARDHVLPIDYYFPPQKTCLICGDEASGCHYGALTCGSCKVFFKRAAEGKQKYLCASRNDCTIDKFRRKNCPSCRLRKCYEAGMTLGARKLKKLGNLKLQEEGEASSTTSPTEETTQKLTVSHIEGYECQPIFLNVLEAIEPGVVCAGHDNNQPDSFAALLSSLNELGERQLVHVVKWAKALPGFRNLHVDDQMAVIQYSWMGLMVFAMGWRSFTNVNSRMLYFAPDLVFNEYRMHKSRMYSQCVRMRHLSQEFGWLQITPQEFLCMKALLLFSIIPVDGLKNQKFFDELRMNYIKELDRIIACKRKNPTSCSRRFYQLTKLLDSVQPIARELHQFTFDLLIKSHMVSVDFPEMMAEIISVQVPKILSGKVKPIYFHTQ
Target sequence in this assay (P40337 whole entry, looked up): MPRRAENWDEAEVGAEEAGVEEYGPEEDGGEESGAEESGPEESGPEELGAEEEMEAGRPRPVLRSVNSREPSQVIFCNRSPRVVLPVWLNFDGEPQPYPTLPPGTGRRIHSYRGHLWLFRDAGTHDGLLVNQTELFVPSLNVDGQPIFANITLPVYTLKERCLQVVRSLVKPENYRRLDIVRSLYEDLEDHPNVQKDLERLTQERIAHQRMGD

[2] = target: T1, von Hippel-Lindau disease tumor suppressor/Androgen receptor; assay: Protac activity against VHL/AR in AR-positive human LNCAP cells assessed as induction of AR degradation incubated for 6 hrs by Western blot analysis; assay type: cell-based
[3] = target: T1, von Hippel-Lindau disease tumor suppressor/Androgen receptor; assay: Protac activity against VHL/AR in AR-positive human LNCAP cells assessed as induction of AR degradation by measuring reduction in AR protein level at 100 nM incubated for 3 hrs by Western blot analysis; assay type: cell-based
Target sequence in this assay (P10275 whole entry, looked up): as the sequence (P10275 whole entry, looked up) above
Target sequence in this assay (P40337 whole entry, looked up): as the sequence (P40337 whole entry, looked up) above

[4] = target: T1, von Hippel-Lindau disease tumor suppressor/Androgen receptor; assay: Protac activity against VHL/AR in AR-positive human VCaP cells assessed as induction of AR degradation incubated for 6 hrs by Western blot analysis; assay type: cell-based
[5] = target: T1, von Hippel-Lindau disease tumor suppressor/Androgen receptor; assay: Protac activity against VHL/AR in AR-positive human VCaP cells assessed as induction of AR degradation by measuring reduction in AR protein level at 100 nM incubated for 3 hrs by Western blot analysis relative to control; assay type: cell-based; set-up: scale not given: the % may be the effect or the level left
Target sequence in this assay (P10275 whole entry, looked up): as the sequence (P10275 whole entry, looked up) above
Target sequence in this assay (P40337 whole entry, looked up): as the sequence (P40337 whole entry, looked up) above

[6] = tested on: LNCaP; assay: Antiproliferative activity against AR-positive human LNCAP cells incubated for 7 days in presence of AR agonist, R1881 by WST-8 assay; assay type: functional, cell-based; conditions: 168 h
[7] = target: T1, von Hippel-Lindau disease tumor suppressor/Androgen receptor; assay: Protac activity against VHL/AR in AR-positive human LNCAP cells assessed as induction of AR degradation at 0.1 uM incubated for 6 hrs by Western blot analysis relative to control; assay type: cell-based
Target sequence in this assay (P10275 whole entry, looked up): as the sequence (P10275 whole entry, looked up) above
Target sequence in this assay (P40337 whole entry, looked up): as the sequence (P40337 whole entry, looked up) above

[8] = tested on: VCaP; assay: Antiproliferative activity against AR- positive human VCaP cells incubated for 7 days in presence of AR agonist, R1881 by WST-8 assay; assay type: functional, cell-based; conditions: 168 h
[9] = target: T1, von Hippel-Lindau disease tumor suppressor/Androgen receptor; assay: Protac activity against VHL/AR in AR-positive human LNCAP cells assessed as induction of AR degradation at 0.01 uM incubated for 6 hrs by Western blot analysis relative to control; assay type: cell-based
Target sequence in this assay (P10275 whole entry, looked up): as the sequence (P10275 whole entry, looked up) above
Target sequence in this assay (P40337 whole entry, looked up): as the sequence (P40337 whole entry, looked up) above

[10] = target: T1, von Hippel-Lindau disease tumor suppressor/Androgen receptor; assay: Protac activity against VHL/AR in AR-positive human LNCAP cells assessed as reduction in FKBP5 mRNA expression level incubated for 24 hrs by qRT-PCR analysis; assay type: cell-based
Target sequence in this assay (P10275 whole entry, looked up): as the sequence (P10275 whole entry, looked up) above
Target sequence in this assay (P40337 whole entry, looked up): as the sequence (P40337 whole entry, looked up) above

[11] = target: T1, von Hippel-Lindau disease tumor suppressor/Androgen receptor; assay: Protac activity against VHL/AR in AR-positive human 22Rv1 cells assessed as induction of AR degradation incubated for 6 hrs by Western blot analysis
[12] = target: T1, von Hippel-Lindau disease tumor suppressor/Androgen receptor; assay: Protac activity against VHL/AR in AR-positive human VCaP cells assessed as reduction in TMPRSS2 mRNA expression level incubated for 24 hrs by qRT-PCR analysis relative to N-((1r,3r)-3-(3-Chloro-4-cyanophenoxy)-2,2,4,4-tetramethylcyclobutyl)-1-(2-hydroxyethyl)-1H-pyrazole-4-carboxamide; assay type: cell-based
[13] = target: T1, von Hippel-Lindau disease tumor suppressor/Androgen receptor; assay: Protac activity against VHL/AR in AR-positive human LNCAP cells assessed as reduction in FKBP5 mRNA expression level at 10 nM incubated for 24 hrs by qRT-PCR analysis relative to control; assay type: cell-based; set-up: scale not given: the % may be the effect or the level left
[14] = target: T1, von Hippel-Lindau disease tumor suppressor/Androgen receptor; assay: Protac activity against VHL/AR in AR-positive human LNCAP cells assessed as AR degradation at 100 nM preincubated with AR antagonist N-((1r,3r)-3-(3-Chloro-4-cyanophenoxy)-2,2,4,4-tetramethylcyclobutyl)-1-(2-hydroxyethyl)-1H-pyrazole-4-carboxamide for 2 hrs followed by incubation with compound addition for 6 hrs by Western blot analysis; assay type: cell-based
[15] = target: T1, von Hippel-Lindau disease tumor suppressor/Androgen receptor; assay: Protac activity against VHL/AR in AR-positive human LNCAP cells assessed as AR degradation at 100 nM preincubated with VHL ligand VHLa for 2 hrs followed by incubation with compound for 6 hrs by Western blot analysis; assay type: cell-based
[16] = target: T1, von Hippel-Lindau disease tumor suppressor/Androgen receptor; assay: Protac activity against VHL/AR in AR-positive human LNCAP cells assessed as reduction in TMPRSS2 mRNA expression level incubated for 24 hrs by qRT-PCR analysis relative to N-((1r,3r)-3-(3-Chloro-4-cyanophenoxy)-2,2,4,4-tetramethylcyclobutyl)-1-(2-hydroxyethyl)-1H-pyrazole-4-carboxamide; assay type: cell-based
[17] = target: T1, von Hippel-Lindau disease tumor suppressor/Androgen receptor; assay: Protac activity against VHL/AR in AR-positive human LNCAP cells assessed as reduction in TMPRSS2 mRNA expression level incubated for 24 hrs by qRT-PCR analysis; assay type: cell-based
[18] = target: T1, von Hippel-Lindau disease tumor suppressor/Androgen receptor; assay: Protac activity against VHL/AR in AR-positive human LNCAP cells assessed as AR degradation at 100 nM preincubated with proteasome inhibitor, MG132 for 2 hrs followed by incubation with compound for 6 hrs by Western blot analysis; assay type: cell-based
[19] = target: T1, von Hippel-Lindau disease tumor suppressor/Androgen receptor; assay: Protac activity against VHL/AR in AR-positive human VCaP cells assessed as induction of AR degradation by measuring reduction in AR protein level at 30 nM incubated for 6 hrs by Western blot analysis relative to control; assay type: cell-based; set-up: scale not given: the % may be the effect or the level left
[20] = target: T1, von Hippel-Lindau disease tumor suppressor/Androgen receptor; assay: Protac activity against VHL/AR in AR-positive human LNCAP cells assessed as reduction in PSA mRNA expression level at 10 nM incubated for 24 hrs by qRT-PCR analysis relative to control; assay type: cell-based; set-up: scale not given: the % may be the effect or the level left
[21] = target: T1, von Hippel-Lindau disease tumor suppressor/Androgen receptor; assay: Protac activity against VHL/AR in AR-positive human LNCAP cells assessed as reduction in FKBP5 mRNA expression level incubated for 24 hrs by qRT-PCR analysis relative to N-((1r,3r)-3-(3-Chloro-4-cyanophenoxy)-2,2,4,4-tetramethylcyclobutyl)-1-(2-hydroxyethyl)-1H-pyrazole-4-carboxamide; assay type: cell-based
[22] = target: T1, von Hippel-Lindau disease tumor suppressor/Androgen receptor; assay: Protac activity against VHL/AR in AR-positive human LNCAP cells assessed as induction of AR degradation by measuring reduction in AR protein level at 30 nM incubated for 6 hrs by Western blot analysis relative to control; assay type: cell-based; set-up: scale not given: the % may be the effect or the level left
[23] = target: T1, von Hippel-Lindau disease tumor suppressor/Androgen receptor; assay: Protac activity against VHL/AR in AR-positive human 22Rv1 cells assessed as induction of AR degradation by measuring reduction in AR protein level at 10 nM incubated for 6 hrs by Western blot analysis relative to control; set-up: scale not given: the % may be the effect or the level left
[24] = target: T1, von Hippel-Lindau disease tumor suppressor/Androgen receptor; assay: Protac activity against VHL/AR in AR-positive human VCaP cells assessed as reduction in FKBP5 mRNA expression level incubated for 24 hrs by qRT-PCR analysis relative to N-((1r,3r)-3-(3-Chloro-4-cyanophenoxy)-2,2,4,4-tetramethylcyclobutyl)-1-(2-hydroxyethyl)-1H-pyrazole-4-carboxamide; assay type: cell-based
[25] = tested on: VCaP; assay: Potency index, ratio of IC50 for AR antagonist N-((1r,3r)-3-(3-Chloro-4-cyanophenoxy)-2,2,4,4-tetramethylcyclobutyl)-1-(2-hydroxyethyl)-1H-pyrazole-4-carboxamide to IC50 for test compound against AR-positive human VCaP cells incubated for 7 days in presence of AR agonist R1881 by WST-8 assay; assay type: functional
[26] = target: T1, von Hippel-Lindau disease tumor suppressor/Androgen receptor; assay: Protac activity against VHL/AR in AR-positive human LNCAP cells assessed as reduction in TMPRSS2 mRNA expression level at 10 nM incubated for 24 hrs by qRT-PCR analysis relative to control; assay type: cell-based; set-up: scale not given: the % may be the effect or the level left
[27] = target: T1, von Hippel-Lindau disease tumor suppressor/Androgen receptor; assay: Protac activity against VHL/AR in AR-positive human LNCAP cells assessed as reduction in PSA mRNA expression level incubated for 24 hrs by qRT-PCR analysis; assay type: cell-based
[28] = target: T1, von Hippel-Lindau disease tumor suppressor/Androgen receptor; assay: Protac activity against VHL/AR in AR-positive human VCaP cells assessed as reduction in ERG mRNA expression level incubated for 24 hrs by qRT-PCR analysis relative to N-((1r,3r)-3-(3-Chloro-4-cyanophenoxy)-2,2,4,4-tetramethylcyclobutyl)-1-(2-hydroxyethyl)-1H-pyrazole-4-carboxamide; assay type: cell-based
[29] = target: T1, von Hippel-Lindau disease tumor suppressor/Androgen receptor; assay: Protac activity against VHL/AR in AR-positive human LNCAP cells assessed as AR degradation at 100 nM preincubated with NEDD8-activating E1 enzyme inhibitor, MLN4924 for 2 hrs followed by incubation with compound for 6 hrs by Western blot analysis; assay type: cell-based
[30] = target: T1, von Hippel-Lindau disease tumor suppressor/Androgen receptor; assay: Protac activity against VHL/AR in AR-positive human LNCAP cells assessed as reduction in PSA mRNA expression level incubated for 24 hrs by qRT-PCR analysis relative to N-((1r,3r)-3-(3-Chloro-4-cyanophenoxy)-2,2,4,4-tetramethylcyclobutyl)-1-(2-hydroxyethyl)-1H-pyrazole-4-carboxamide; assay type: cell-based
[31] = Inhibition of His-TEV-tagged VHL (54 to 213 residues) (unknown origin)/Elongin B (1 to 118 residues)/Elongin C (1 to 96 residues) expressed in Escherichia coli BL21(DE3) incubated for 60 mins by FP assay; set-up: species or system Homo sapiens

With Cc1cc([C@H](C(=O)N2C[C@H](O)C[C@H]2C(=O)N[C@@H](CC(=O)N2CCC(N3CCC(C#Cc4ccc(C(=O)N[C@H]5C(C)(C)[C@H](Oc6ccc(C#N)c(Cl)c6)C5(C)C)cc4)CC3)CC2)c2ccc(-c3scnc3C)cc2)C(C)C)on1 the Activity [1] was over 99%, the DC50 [2] was 7.2 nM and the Activity [3] was “Active”. For the same compound, the DC50 [4] was 1 nM, the Activity [5] was over 90% and the IC50 [6] was 2 nM. For the same compound, the Activity [7] was over 95%, the IC50 [8] was 2 nM and the Activity [9] was 76%.
With Cc1cc([C@H](C(=O)N2C[C@H](O)C[C@H]2C(=O)N[C@@H](CC(=O)N2CCC(C#Cc3ccc(C(=O)N[C@H]4C(C)(C)[C@H](Oc5ccc(C#N)c(Cl)c5)C4(C)C)cc3)CC2)c2ccccc2)C(C)C)on1 the Activity [10] was “Dose-dependent effect”, the Activity [11] was “Dose-dependent effect” and the DC50 [11] was 0.153 nM. For the same compound, the fold change (FC) [12] was over 10, the Activity [13] was over 50% and the Activity [14] was “inactive”. For the same compound, the Activity [1] was over 99%, the Activity [15] was “inactive” and the Activity [2] was “Dose-dependent effect”. For the same compound, the DC50 [2] was 0.535 nM, the fold change (FC) [16] was over 10 and the Activity [17] was “Dose-dependent effect”. For the same compound, the Activity [3] was “Active”, the Activity [4] was “Dose-dependent effect” and the DC50 [4] was 0.969 nM. For the same compound, the Activity [5] was over 90%, the Activity [18] was “inactive” and the Activity [19] was over 95%. For the same compound, the Activity [20] was over 50%, the IC50 [6] was 2 nM and the fold change (FC) [21] was over 10. The Activity [22] was over 95%, the Activity [23] was over 95% and the Activity [7] was over 95%. For the same compound, the IC50 [8] was 6 nM, the fold change (FC) [24] was over 10 and the “Ratio IC50” value [25] was 30. The Activity [26] was over 50%, the Activity [27] was “Dose-dependent effect” and the Activity [9] was 90%. The fold change (FC) [28] was over 10, the Activity [29] was “inactive” and the fold change (FC) [30] was over 10.
Work on CC1(C)[C@H](NC(=O)c2cnn(CCO)c2)C(C)(C)[C@H]1Oc1ccc(C#N)c(Cl)c1 yielded an IC50 [6] of 64.5 nM and an IC50 [8] of 182 nM.
CNC(=O)c1ccc(N2C(=S)N(c3ccc(C#N)c(C(F)(F)F)c3)C(=O)C2(C)C)cc1F [ENZALUTAMIDE] showed an IC50 [6] of 151 nM and an IC50 [8] of 364 nM.
For CNC(=O)C[C@H](NC(=O)[C@@H]1C[C@@H](O)CN1C(=O)[C@@H](c1cc(C)no1)C(C)C)c1ccc(C#N)cc1, the IC50 [31] was 1080 nM and the Ki [31] was 310 nM.

From ChEMBL document CHEMBL4321866, “Discovery of Highly Potent and Efficient PROTAC Degraders of Androgen Receptor (AR) by Employing Weak Binding Affinity VHL E3 Ligase Ligands” (J Med Chem, 2019)
